Where a SMILES comes first, the peptide text is derived from it. Bridges are numbered along the chain shown (N, C = ends). [ ]: non-standard residue; d: D form. Dap = NC[C@H](N)C(=O)O Some results are limits rather than exact numbers.

Data set [1] addresses T1, human VIPR2 (Homo sapiens, UniProt P41587).
T1 construct: host or cells: CHO-K1
T1 sequence (P41587 24-438): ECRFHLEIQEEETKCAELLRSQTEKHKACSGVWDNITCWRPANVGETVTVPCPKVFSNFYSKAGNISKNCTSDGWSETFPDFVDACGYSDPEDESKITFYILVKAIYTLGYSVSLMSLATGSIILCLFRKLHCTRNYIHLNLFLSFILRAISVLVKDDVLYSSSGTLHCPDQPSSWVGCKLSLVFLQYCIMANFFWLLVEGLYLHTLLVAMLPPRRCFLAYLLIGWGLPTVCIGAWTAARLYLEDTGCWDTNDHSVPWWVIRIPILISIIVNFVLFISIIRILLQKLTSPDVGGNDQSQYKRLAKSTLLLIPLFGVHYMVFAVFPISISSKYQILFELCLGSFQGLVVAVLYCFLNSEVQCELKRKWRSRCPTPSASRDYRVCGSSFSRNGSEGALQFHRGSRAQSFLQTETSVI
The experiment in a line: Calcium influx assay, antagonist activity against VIP-VIPR2 signaling. The conditions noted are these: ligand VIP (150 nM) at EC80; CHO-K1 cells; n = 4 wells, ± S.E.M; read-out: Ca influx assay [IC50 (nM)] VIPR2. The class given is cell-based. As to the method: Evaluation of antagonist activities of peptides against VIP-VIPR1, VIP-VIPR2, and PACAP-PAC1 signaling pathways and agonistic activity of KS-133 at VIPR2 was carried out by Eurofins DiscoverX (Fremont, CA, United States). Intracellular calcium mobilization was monitored using a calcium-sensitive dye loaded in CHO-K1 cells expressing human VIPR1 (ITEM 86-0030P-2243AN), VIPR2 (ITEM 86-0030P-2244AN), and PAC1 (ITEM 86-0030P-2066AN). The cells were preincubated with antagonistic peptides for 30 min at room temperature in the dark. After addition of the ligand at EC80, calcium mobilization was immediately monitored by FLIPR Tetra for 2 min. Cyclic AMP production in CHO-K1 cells expressing human VIPR2 was evaluated using HitHunter® cAMP assays (antagonist mode: ITEM 86-0007P-2362AN; agonist mode: ITEM 86-0007P-2362AG). […] Cells were lysed and the cAMP content of the cell lysate was determined by the β-galactosidase-based enzyme fragment complementation assay ([Eglen, 2002]). […]
First, the antagonistic activities of parental VIpep-3, KS-132, KS-133 (monocyclic) (no bridging between Lys^7 and Asp^11), and KS-133 against human VIPR1, VIPR2, and PAC1 were evaluated by a calcium influx assay. After antagonistic peptide treatment for 30 min, ligand at a concentration of EC80 was added to the cells and then calcium signaling was measured. […]

In data set [2] the target is T2, human PAC1 (Homo sapiens, UniProt P41586).
T2 construct: host or cells: CHO-K1
T2 sequence (P41586 21-468): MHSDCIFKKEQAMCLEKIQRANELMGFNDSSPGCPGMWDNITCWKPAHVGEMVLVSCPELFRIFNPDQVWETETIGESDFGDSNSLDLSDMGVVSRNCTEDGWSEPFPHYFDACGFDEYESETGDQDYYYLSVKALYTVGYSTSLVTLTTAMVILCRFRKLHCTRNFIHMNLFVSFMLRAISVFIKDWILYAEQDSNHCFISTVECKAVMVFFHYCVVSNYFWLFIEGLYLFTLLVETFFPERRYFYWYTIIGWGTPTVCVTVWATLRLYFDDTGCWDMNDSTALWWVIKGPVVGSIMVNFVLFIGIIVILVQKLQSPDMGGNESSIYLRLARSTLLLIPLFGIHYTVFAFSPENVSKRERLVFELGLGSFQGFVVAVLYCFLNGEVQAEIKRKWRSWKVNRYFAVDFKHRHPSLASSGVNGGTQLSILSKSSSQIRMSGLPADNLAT
The experiment in a line: Calcium influx assay, antagonist activity against PACAP-PAC1 signaling. As to conditions: ligand PACAP (35 nM) at EC80; CHO-K1 cells; n = 4 wells, ± S.E.M; read-out: Ca influx assay [IC50 (nM)] PAC1. The class given is cell-based. As to the method: (§1) Evaluation of antagonist activities of peptides against VIP-VIPR1, VIP-VIPR2, and PACAP-PAC1 signaling pathways and agonistic activity of KS-133 at VIPR2 was carried out by Eurofins DiscoverX (Fremont, CA, United States). Intracellular calcium mobilization was monitored using a calcium-sensitive dye loaded in CHO-K1 cells expressing human VIPR1 (ITEM 86-0030P-2243AN), VIPR2 (ITEM 86-0030P-2244AN), and PAC1 (ITEM 86-0030P-2066AN). The cells were preincubated with antagonistic peptides for 30 min at room temperature in the dark. After addition of the ligand at EC80, calcium mobilization was immediately monitored by FLIPR Tetra for 2 min. Cyclic AMP production in CHO-K1 cells expressing human VIPR2 was evaluated using HitHunter® cAMP assays (antagonist mode: ITEM 86-0007P-2362AN; agonist mode: ITEM 86-0007P-2362AG). The cells were preincubated with antagonistic peptides for 30 min at room temperature. After addition of the ligand at EC80, cells were further incubated for 30 min at room temperature. Cells were lysed and the cAMP content of the cell lysate was determined by the β-galactosidase-based enzyme fragment complementation assay ([Eglen, 2002]). IC50 values were estimated by the following equation: IC50 = 10^[Log(A/B) × (50–D)/(C–D) + Log(B)], where A is the concentration at >50% inhibition, B is the concentration at <50% inhibition, C is the inhibition rate at concertation A, and D is the inhibition rate at concertation B.
(§2) First, the antagonistic activities of parental VIpep-3, KS-132, KS-133 (monocyclic) (no bridging between Lys^7 and Asp^11), and KS-133 against human VIPR1, VIPR2, and PAC1 were evaluated by a calcium influx assay. After antagonistic peptide treatment for 30 min, ligand at a concentration of EC80 was added to the cells and then calcium signaling was measured.
(§3) FIGURE 3 Antagonistic/agonistic activities of peptides in the calcium influx and cAMP assays. For evaluation of the antagonistic activity, the cells were preincubated with antagonistic peptides for 30 min. In the calcium influx assay, after addition of ligand at EC80, calcium mobilization was monitored immediately (see details in the Methods section) (n = 4 wells for each treatment). In the cAMP assay, after a 30 min incubation with the ligand at EC80, cAMP production in cells was measured (see details in the Methods section) (n = 4 wells for each treatment).

The target in data set [3] is T3, human VIPR1 (Homo sapiens, UniProt P32241).
T3 construct: host or cells: CHO-K1
T3 sequence (P32241 31-457): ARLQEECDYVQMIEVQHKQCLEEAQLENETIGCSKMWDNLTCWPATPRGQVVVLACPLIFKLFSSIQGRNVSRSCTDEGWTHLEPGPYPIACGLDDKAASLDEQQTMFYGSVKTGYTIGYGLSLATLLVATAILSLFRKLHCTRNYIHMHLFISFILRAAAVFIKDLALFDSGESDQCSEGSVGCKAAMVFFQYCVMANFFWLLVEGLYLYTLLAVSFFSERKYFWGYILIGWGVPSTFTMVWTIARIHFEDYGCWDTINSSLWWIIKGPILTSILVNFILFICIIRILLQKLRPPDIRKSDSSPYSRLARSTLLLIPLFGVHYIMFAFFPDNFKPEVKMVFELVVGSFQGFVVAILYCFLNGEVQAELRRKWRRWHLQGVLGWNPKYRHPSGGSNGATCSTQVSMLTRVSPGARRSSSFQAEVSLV
As to the kind of experiment: Calcium influx assay, antagonist activity against VIP-VIPR1 signaling. The class given is cell-based. As to conditions: ligand VIP (25 nM) at EC80; CHO-K1 cells; n = 4 wells, ± S.E.M; read-out: Ca influx assay [IC50 (nM)] VIPR1. As to the method: as §1, §2, §3

Data set [4] in a line: Peptide stability in rat plasma (RP-HPLC). As to conditions: for Stability in rat plasma / RP-HPLC peak area, incubation time 24 h / remaining at 24 h, 0.476 mM: 37°C, 24 h; for RP-HPLC peak area, Input (NT): no plasma treatment; for RP-HPLC peak area, incubation time 24 h / remaining at 24 h, 0.476 mM / RP-HPLC peak area, immediately after mixing / Residual rate, immediately after mixing: rat plasma; for remaining at 24 h, 0.476 mM: read-out: Residual rate, incubation time 24 h. The class given is in vitro ADME. The procedure:
Each peptide (10 mM, 1 μl) was incubated with rat plasma (20 μl) prepared in-house. Immediately after mixing with plasma and after 24 h of incubation at 37°C, 80% acetonitrile (200 μl) was added to extract VIpep-3 and acetonitrile (200 μl) was added to extract KS-132, KS-133(monocyclic), and KS-133. The mixture was stored for 10 min on ice and then centrifuged at 20,000 × g for 10 min at 4°C. The supernatant was recovered and directly applied to RP-HPLC to determine the remaining amount of unmodified peptides in the sample.
The stability of peptides was evaluated in rat plasma. A peptide was incubated in rat plasma at 37°C for 0 and 24 h and the remaining amount of peptide was determined by RP-HPLC. By comparison with the peak area of the peptide, the remaining amount of the peptide after plasma incubation was estimated. […] KS-133(monocyclic) may form a pseudo bicyclic structure by ionic bond interaction between side chains of Lys and Asp.

For data set [5], the system named is VIPR2. Also noted: method as in Sakamoto et al. (2018). As to conditions: versus VIPR1 and PAC1; ref Sakamoto et al. (2018); cited from earlier work.

As for `CC[C@H](C)[C@H](NC(=O)[C@H](CC(C)C)NC(=O)[C@H](CN)NC(=O)[C@@H]1CSSC[C@H](NC(C)=O)C(=O)N2CCC[C@H]2C(=O)N2CCC[C@H]2C(=O)N[C@@H](Cc2ccc(O)cc2)C(=O)N[C@@H](CC(C)C)C(=O)N2CCC[C@H]2C(=O)N[C@@H](CN)C(=O)N[C@@H](Cc2ccc(O)cc2)C(=O)N[C@@H](CC(C)C)C(=O)N1)C(N)=O` [KS-132, Ac-c(Cys-Pro-Pro-Tyr-Leu-Pro-Dap-Tyr-Leu-Cys)-Dap-Leu-Ile-NH2] (Ac-CPPYLP[Dap]YLC[Dap]LI-NH2; disulfide 1-10), in data set [1], the half-inhibitory concentration (IC50) came to 33.4 ± 2.8 nM. Further, in data set [2], the concentration for half-maximal inhibition (IC50) is more than 5000 nM. Besides, the IC50 in data set [3] was more than 5000 nM. Further, in data set [4], the “Stability in rat plasma” value was “significantly degraded within 24 h”; the “RP-HPLC peak area, Input (NT)” value worked out at 1460241; the “RP-HPLC peak area, incubation time 24 h” value amounted to 696652; the remaining at 24 h, 0.476 mM amounted to 57.8%. Further, in data set [4], the “RP-HPLC peak area, immediately after mixing” value (from here on “RP-HPLC peak area, immediately”) came out at 1206247 and the “Residual rate, immediately after mixing” value is on record as 100%.

For `CC[C@H](C)[C@H](NC(=O)[C@H](CC(C)C)NC(=O)[C@H](CC(=O)O)NC(=O)[C@@H]1CSSC[C@H](NC(C)=O)C(=O)N2CCC[C@H]2C(=O)N2CCC[C@H]2C(=O)N[C@@H](Cc2ccc(O)cc2)C(=O)N[C@@H](CC(C)C)C(=O)N2CCC[C@H]2C(=O)N[C@@H](CCCCN)C(=O)N[C@@H](Cc2ccc(O)cc2)C(=O)N[C@@H](CC(C)C)C(=O)N1)C(N)=O` [KS-133(monocyclic)] (Ac-CPPYLPKYLCDLI-NH2; disulfide 1-10), the IC50 in data set [1] stood at 56 ± 3.9 nM. In data set [2], the concentration for half-maximal inhibition (IC50) is more than 5000 nM. Moreover, in data set [3], the concentration for half-maximal inhibition (IC50) is more than 5000 nM. Also, in data set [4], the “Stability in rat plasma” value is “also highly stable”; the “RP-HPLC peak area, Input (NT)” value was determined as 768775; the “RP-HPLC peak area, incubation time 24 h” value was 724176; the remaining at 24 h, 0.476 mM is 97.3%. Further, in data set [4], the “RP-HPLC peak area, immediately” value is reported as 744262 and the “Residual rate, immediately after mixing” value is reported as 100%.

Regarding `CC(=O)N[C@H]1CSSC[C@@H](C(=O)N[C@H](C(=O)N[C@@H](CC(C)C)C(=O)N[C@@H](CC(C)C)C(=O)N[C@@H](CC(C)C)C(=O)N[C@@H](CCCNC(=N)N)C(=O)N[C@@H](CO)C(=O)O)[C@@H](C)O)NC(=O)[C@H](CC(C)C)NC(=O)[C@H](CCCNC(=N)N)NC(=O)[C@H](CCCNC(=N)N)NC(=O)[C@@H]2CCCN2C(=O)[C@H](CC(C)C)NC(=O)[C@H](Cc2ccc(O)cc2)NC(=O)[C@@H]2CCCN2C(=O)[C@@H]2CCCN2C1=O` [VIpep-3, Ac-c(CPPYLPRRLC)TLLLRS-OH, reference compound] (Ac-CPPYLPRRLCTLLLRS-OH; disulfide 1-10), the IC50 in data set [2] is more than 5000 nM. In data set [3], the IC50 is more than 5000 nM. Also, the “Receptor selectivity for VIPR2 compared with the two other receptor subtypes” value in data set [5] was “more than 50 fold”. Besides, in data set [4], the “Stability in rat plasma” value was “significantly degraded within 24 h”; the “RP-HPLC peak area, Input (NT)” value is 1299273; the “RP-HPLC peak area, incubation time 24 h” value is 95354; the remaining at 24 h, 0.476 mM stood at 10.6%. In data set [4], the “RP-HPLC peak area, immediately” value was 900813 and the “Residual rate, immediately after mixing” value was 100%.

The term IC50 denotes the concentration that inhibits the measured activity by half.

These data come from publication PMC8607231, “Generation of KS-133 as a Novel Bicyclic Peptide with a Potent and Selective VIPR2 Antagonist Activity that Counteracts Cognitive Decline in a Mouse Model of Psychiatric Disorders” (Frontiers in Pharmacology, 2021).
